Where two headings read alike, the source gives them in different places.
Experiments:
BCRP (ABCG2) [1] = biological target: T1, BCRP (ABCG2) (Homo sapiens, UniProt Q9UNQ0); experiment: 3H-oxypurinol accumulation assay in BCRP-overexpressing HEK293 cells; conditions: excipients at concentrations similar to vesicle screen; 30 min
T1 sequence (Q9UNQ0 1-655): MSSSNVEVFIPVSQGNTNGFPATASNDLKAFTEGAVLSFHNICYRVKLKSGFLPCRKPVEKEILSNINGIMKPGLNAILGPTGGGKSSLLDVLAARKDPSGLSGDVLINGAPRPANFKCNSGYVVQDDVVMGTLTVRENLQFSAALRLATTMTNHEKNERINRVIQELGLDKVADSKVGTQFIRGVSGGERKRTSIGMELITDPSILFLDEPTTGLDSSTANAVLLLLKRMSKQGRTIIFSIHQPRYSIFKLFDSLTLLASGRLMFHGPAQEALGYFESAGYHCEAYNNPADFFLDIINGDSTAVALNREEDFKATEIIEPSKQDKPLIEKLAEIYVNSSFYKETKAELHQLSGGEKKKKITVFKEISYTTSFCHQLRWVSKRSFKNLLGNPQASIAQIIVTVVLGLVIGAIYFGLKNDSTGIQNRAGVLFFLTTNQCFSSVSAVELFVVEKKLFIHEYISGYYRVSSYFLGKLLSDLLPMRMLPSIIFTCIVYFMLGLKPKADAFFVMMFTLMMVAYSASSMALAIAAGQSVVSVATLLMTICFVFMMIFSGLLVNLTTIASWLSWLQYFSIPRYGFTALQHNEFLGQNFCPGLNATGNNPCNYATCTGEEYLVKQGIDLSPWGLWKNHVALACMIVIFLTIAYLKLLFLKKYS

human BCRP [2] = biological target: T2, human BCRP (Homo sapiens, UniProt Q9UNQ0)
T2 sequence (Q9UNQ0 1-655): T1 sequence (Q9UNQ0 1-655)

BCRP = conditions: previous study; cited from earlier work
BCRP (ABCG2) [3] = biological target: T1, BCRP (ABCG2); conditions: 30 min
human BCRP [4] = biological target: T2, human BCRP; experiment: BCRP vesicular transport assay

D&C Brown No. 1
increase of BCRP-mediated 3H-oxypurinol accumulation in BCRP-overexpressing HEK293 cells (BCRP (ABCG2) [1]): 26.8%

COc1ccc(CCC(=O)c2c(O)cc(O[C@@H]3O[C@H](CO)[C@@H](O)[C@H](O)[C@H]3O[C@@H]3O[C@@H](C)[C@H](O)[C@@H](O)[C@H]3O)cc2O)cc1O [neohesperidin DC]
inhibition of BCRP-mediated 3H-CCK8 uptake in vesicles (in words) (human BCRP [2]): did not inhibit | inhibition of BCRP-mediated Lucifer yellow uptake in vesicle assays (BCRP): did inhibit

COc1cc(/C=C/C(=O)CC(=O)/C=C/c2ccc(O)c(OC)c2)ccc1O [curcumin, reference compound]
(EV + I)/(EV – I), nonspecific effect on cell membranes (BCRP (ABCG2) [3]; 100 μM): 0.571 | normalized oxypurinol accumulation ((BCRP + I)/(BCRP – I))/((EV + I)/(EV – I)) (BCRP (ABCG2) [3]; 100 μM): 3.7

CCN(CC)c1ccc2c(-c3ccccc3C(=O)O)c3ccc(=[N+](CC)CC)cc-3oc2c1 [Rhodamine B]
increase of BCRP-mediated 3H-oxypurinol accumulation in BCRP-overexpressing HEK293 cells (BCRP (ABCG2) [3]): more than 50%

CCCCC(CC)COC(=O)CC(C(=O)OCC(CC)CCCC)S(=O)(=O)O (stereo not shown) [Docusate sodium]
increase of BCRP-mediated 3H-oxypurinol accumulation in BCRP-overexpressing HEK293 cells (BCRP (ABCG2) [3]): 26.4%

O=C1OC(c2ccc(O)c(S(=O)(=O)O)c2)(c2ccc(O)c(S(=O)(=O)O)c2)c2c(Br)c(Br)c(Br)c(Br)c21 [bromosulfophthalein, reference compound]
3H-CCK8 uptake in human BCRP membrane vesicles (human BCRP [4]; 5 mM ATP and 200 μM BSP, 37 °C, 5 min (ATP alone 1.88, AMP 0.58)): 0.44 pmol/mg/min

CCN(Cc1cccc(S(=O)(=O)[O-])c1)c1ccc(C(=C2C=CC(=[N+](CC)Cc3cccc(S(=O)(=O)[O-])c3)C=C2)c2ccccc2S(=O)(=O)[O-])cc1.[Na+].[Na+] [FD&C Blue No. 1]
inhibition of BCRP-mediated 3H-CCK8 uptake in vesicles (in words) (human BCRP [4]; screening concentration, inhibitor = more than 50% inhibition): inhibited | inhibition of BCRP-mediated Lucifer yellow uptake in vesicle assays (BCRP): did not inhibit

Source: PMC8177814 (Molecular pharmaceutics, 2020)
